Reference: BigSolDB 2.1

COC(=O)c1ccc2cc(C(=O)OC)ccc2c1
Conditions	solubility (mole fraction)
in DMAc, 299.11 K	0.00345
in DMAc, 315.05 K	0.0072
in DMAc, 320.35 K	0.00895
in DMAc, 326.25 K	0.0112
in DMAc, 330.38 K	0.0129
in DMAc, 337.27 K	0.0167
in DMAc, 342.39 K	0.0202
in DMAc, 352.75 K	0.0301
in DMAc, 358.55 K	0.0377
in DMAc, 364.4 K	0.0452
in DMAc, 370.8 K	0.0573
in DMAc, 376.26 K	0.0674
in DMAc, 381.71 K	0.0814
in DMAc, 383.38 K	0.0855
in DMAc, 387.01 K	0.0963
in DMAc, 391.14 K	0.107
in DMAc, 392.17 K	0.112
in DMF, 303.31 K	0.00253
in DMF, 309.36 K	0.00341
in DMF, 317.9 K	0.00521
in DMF, 329.65 K	0.00884
in DMF, 335.43 K	0.0116
in DMF, 342.21 K	0.015
in DMF, 349.85 K	0.0193
in DMF, 357.96 K	0.0272
in DMF, 362.73 K	0.0323
in DMF, 366.6 K	0.0396
in DMF, 368.38 K	0.0408
in DMF, 373.02 K	0.0495
in DMF, 377.86 K	0.0574
in DMF, 379.66 K	0.0611
in DMF, 382.14 K	0.0661
in DMF, 383.38 K	0.0699
in DMSO, 298.28 K	0.000669
in DMSO, 308.07 K	0.00113
in DMSO, 316.57 K	0.00179
in DMSO, 324.97 K	0.00272
in DMSO, 340.85 K	0.00537
in DMSO, 347.18 K	0.00726
in DMSO, 353.35 K	0.00952
in DMSO, 356.66 K	0.0109
in DMSO, 365.19 K	0.0157
in DMSO, 369.88 K	0.016
in DMSO, 374.65 K	0.0226
in DMSO, 386.85 K	0.0352
in DMSO, 394.81 K	0.0471
in DMSO, 405.07 K	0.069
in NMP, 293.2 K	0.0056
in NMP, 296.73 K	0.00577
in NMP, 300.48 K	0.00606
in NMP, 303.5 K	0.00632
in NMP, 308.77 K	0.00669
in NMP, 311.81 K	0.00687
in NMP, 317.1 K	0.0074
in NMP, 322.89 K	0.00803
in NMP, 328.16 K	0.00864
in NMP, 336.69 K	0.00914
in NMP, 345.34 K	0.0103
in NMP, 354.23 K	0.0115
in NMP, 360.09 K	0.0125
in NMP, 368.69 K	0.0132
in NMP, 375.38 K	0.016
in NMP, 383.36 K	0.0167
in NMP, 393.2 K	0.0195
in NMP, 404.46 K	0.0251
in NMP, 409.92 K	0.0271
in NMP, 414.36 K	0.0299
in NMP, 418.83 K	0.0328
in NMP, 423.7 K	0.0379
in NMP, 425.77 K	0.0399
in acetic acid, 292.49 K	0.00051
in acetic acid, 295.65 K	0.000621
in acetic acid, 300.35 K	0.000804
in acetic acid, 306.86 K	0.00116
in acetic acid, 311.63 K	0.00147
in acetic acid, 316.5 K	0.0019
in acetic acid, 320.65 K	0.00232
in acetic acid, 323 K	0.00254
in acetic acid, 329.15 K	0.00381
in acetic acid, 333.47 K	0.00428
in acetic acid, 337.2 K	0.0051
in acetic acid, 343.3 K	0.00657
in acetic acid, 350.13 K	0.00833
in acetic acid, 357.38 K	0.0113
in acetic acid, 362.8 K	0.0143
in acetic acid, 366.66 K	0.0169
in acetic acid, 372.51 K	0.0217
in acetic acid, 375.64 K	0.0248
in acetic acid, 381.78 K	0.0304
in acetic acid, 385.96 K	0.0352
in acetic acid, 392.47 K	0.046
in acetic acid, 394.71 K	0.0493
in acetic acid, 398.5 K	0.0564
in acetic acid, 400.54 K	0.0607
